The results in this text go back to ChEMBL document CHEMBL3259630, “Interkingdom pharmacology of Angiotensin-I converting enzyme inhibitor phosphonates produced by actinomycetes” (ACS Med Chem Lett, 2014).

Assay [1] deals with T1, Angiotensin-converting enzyme (Oryctolagus cuniculus, UniProt P12822).
T1 sequence (P12822 whole entry): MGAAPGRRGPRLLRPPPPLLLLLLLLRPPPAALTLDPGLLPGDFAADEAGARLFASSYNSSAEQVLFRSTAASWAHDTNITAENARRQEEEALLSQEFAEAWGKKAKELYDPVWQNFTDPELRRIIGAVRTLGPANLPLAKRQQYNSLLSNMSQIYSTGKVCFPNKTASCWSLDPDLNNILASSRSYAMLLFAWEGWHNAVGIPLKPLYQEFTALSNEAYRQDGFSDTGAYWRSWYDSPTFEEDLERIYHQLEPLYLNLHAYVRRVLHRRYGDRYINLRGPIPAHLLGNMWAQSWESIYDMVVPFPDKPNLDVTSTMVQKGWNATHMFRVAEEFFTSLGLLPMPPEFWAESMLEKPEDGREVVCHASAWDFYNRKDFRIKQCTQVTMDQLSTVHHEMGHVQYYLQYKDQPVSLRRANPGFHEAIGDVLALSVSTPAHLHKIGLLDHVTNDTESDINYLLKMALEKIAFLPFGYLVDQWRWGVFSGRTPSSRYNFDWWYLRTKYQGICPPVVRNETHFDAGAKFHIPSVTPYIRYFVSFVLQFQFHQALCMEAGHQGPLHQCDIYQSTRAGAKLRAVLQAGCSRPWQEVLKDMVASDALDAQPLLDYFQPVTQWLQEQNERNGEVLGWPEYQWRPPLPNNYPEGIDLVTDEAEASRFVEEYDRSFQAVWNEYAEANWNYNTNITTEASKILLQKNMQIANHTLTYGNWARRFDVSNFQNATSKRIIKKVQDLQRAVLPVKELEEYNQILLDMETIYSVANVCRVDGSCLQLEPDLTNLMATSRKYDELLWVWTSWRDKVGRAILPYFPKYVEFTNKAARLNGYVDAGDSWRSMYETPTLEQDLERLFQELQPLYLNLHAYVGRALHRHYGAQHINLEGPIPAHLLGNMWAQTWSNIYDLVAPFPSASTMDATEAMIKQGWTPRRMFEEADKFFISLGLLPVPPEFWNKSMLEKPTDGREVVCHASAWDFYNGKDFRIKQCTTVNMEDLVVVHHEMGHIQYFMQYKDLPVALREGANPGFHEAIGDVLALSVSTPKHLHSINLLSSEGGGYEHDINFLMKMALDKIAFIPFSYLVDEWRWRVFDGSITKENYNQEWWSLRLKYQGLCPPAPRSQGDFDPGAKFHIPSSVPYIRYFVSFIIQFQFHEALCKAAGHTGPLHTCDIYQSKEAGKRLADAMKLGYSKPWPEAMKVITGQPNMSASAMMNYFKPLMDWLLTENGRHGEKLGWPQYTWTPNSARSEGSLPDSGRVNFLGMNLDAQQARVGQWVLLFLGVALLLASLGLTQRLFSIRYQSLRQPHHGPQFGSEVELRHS
Description: Inhibition of rabbit lung somatic ACE using FAPGG substrate.

Assay [2] is described as follows: Inhibition of Astrosporangium hypotensionis dicarboxypeptidase assessed as FAPGG substrate hydrolysis.
For assay [3], the target named is T2, Dipeptidyl carboxypeptidase (Escherichia coli (strain K12), UniProt P24171).
T2 sequence (P24171 whole entry): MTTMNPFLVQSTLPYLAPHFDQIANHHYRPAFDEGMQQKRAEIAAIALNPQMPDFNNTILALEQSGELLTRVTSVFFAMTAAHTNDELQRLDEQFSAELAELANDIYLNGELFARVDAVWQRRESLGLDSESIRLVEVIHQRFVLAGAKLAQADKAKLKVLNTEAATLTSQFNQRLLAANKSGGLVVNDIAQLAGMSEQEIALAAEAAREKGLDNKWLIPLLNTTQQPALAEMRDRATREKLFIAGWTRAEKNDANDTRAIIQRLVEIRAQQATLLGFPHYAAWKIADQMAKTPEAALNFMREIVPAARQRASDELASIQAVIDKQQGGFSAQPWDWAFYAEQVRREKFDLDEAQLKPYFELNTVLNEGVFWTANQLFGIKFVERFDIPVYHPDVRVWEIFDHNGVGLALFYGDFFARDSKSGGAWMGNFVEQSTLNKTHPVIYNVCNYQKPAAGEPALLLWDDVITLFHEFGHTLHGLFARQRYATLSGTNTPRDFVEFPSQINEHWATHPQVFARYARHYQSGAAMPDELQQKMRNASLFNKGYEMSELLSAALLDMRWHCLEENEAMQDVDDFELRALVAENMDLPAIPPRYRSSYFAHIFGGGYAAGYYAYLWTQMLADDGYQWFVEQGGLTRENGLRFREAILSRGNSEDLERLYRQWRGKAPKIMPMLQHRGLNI
The assay is described as follows: Inhibition of Escherichia coli dipeptidyl carboxypeptidase assessed as FAPGG substrate hydrolysis.

Assay [4] in a line: Inhibition of Schwanella oneidensis dipeptidyl carboxypeptidase assessed as FAPGG substrate hydrolysis.
Assay [5] addresses T3, Angiotensin-converting enzyme (Homo sapiens, UniProt P12821). The assay is described as follows: Inhibition of human ACE C-terminal domain using Cbz-Phe-His-Leu-OH substrate.
Assay [6] concerns the target T3, Angiotensin-converting enzyme. Description: Inhibition of human ACE N-terminal domain using Cbz-Phe-His-Leu-OH substrate.
Assay [7] shares this target. Description: Inhibition of ACE (unknown origin).

By IC50 is commonly meant the point on the concentration scale where inhibition reaches its midpoint. For orientation: Ki means a measure of affinity in units of concentration, obtained from inhibition or displacement.

T3 sequence (P12821 whole entry, the tested form may be a part): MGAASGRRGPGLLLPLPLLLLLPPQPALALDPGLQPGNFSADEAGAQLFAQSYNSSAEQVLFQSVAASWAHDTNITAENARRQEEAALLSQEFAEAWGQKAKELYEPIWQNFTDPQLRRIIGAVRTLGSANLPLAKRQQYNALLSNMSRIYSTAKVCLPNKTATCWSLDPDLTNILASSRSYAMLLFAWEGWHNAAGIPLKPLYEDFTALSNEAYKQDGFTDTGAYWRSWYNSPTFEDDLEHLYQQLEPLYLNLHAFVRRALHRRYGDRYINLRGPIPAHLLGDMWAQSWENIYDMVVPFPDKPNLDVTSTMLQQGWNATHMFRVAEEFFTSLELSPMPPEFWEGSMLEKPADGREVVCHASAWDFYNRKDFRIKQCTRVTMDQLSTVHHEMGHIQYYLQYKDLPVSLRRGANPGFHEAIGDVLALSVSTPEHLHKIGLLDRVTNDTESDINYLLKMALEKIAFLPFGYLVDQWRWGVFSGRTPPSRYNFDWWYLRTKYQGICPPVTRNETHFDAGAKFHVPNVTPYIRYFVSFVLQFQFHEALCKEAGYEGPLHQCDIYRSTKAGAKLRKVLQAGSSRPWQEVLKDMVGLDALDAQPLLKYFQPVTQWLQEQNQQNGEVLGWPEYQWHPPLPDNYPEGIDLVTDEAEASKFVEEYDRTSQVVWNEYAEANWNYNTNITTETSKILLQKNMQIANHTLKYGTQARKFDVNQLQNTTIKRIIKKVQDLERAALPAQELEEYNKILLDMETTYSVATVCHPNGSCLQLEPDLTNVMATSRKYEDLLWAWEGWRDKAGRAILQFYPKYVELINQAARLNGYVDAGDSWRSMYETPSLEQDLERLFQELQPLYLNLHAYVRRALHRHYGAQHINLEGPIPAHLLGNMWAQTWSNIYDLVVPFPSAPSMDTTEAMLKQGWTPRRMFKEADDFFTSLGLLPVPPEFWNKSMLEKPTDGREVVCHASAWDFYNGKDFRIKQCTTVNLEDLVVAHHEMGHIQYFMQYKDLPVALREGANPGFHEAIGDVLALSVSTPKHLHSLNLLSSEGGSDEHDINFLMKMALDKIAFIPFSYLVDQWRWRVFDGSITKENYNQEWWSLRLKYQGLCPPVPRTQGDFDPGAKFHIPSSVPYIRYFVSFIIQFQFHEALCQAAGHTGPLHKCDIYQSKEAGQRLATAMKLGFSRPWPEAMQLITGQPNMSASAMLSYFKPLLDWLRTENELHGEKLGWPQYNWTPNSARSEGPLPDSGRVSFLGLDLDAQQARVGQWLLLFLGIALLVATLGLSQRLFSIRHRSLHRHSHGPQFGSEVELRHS

As for `CC[C@H](C)[C@H](NC(C)=O)C(=O)N[C@@H](Cc1ccc(O)cc1)C(=O)N[C@@H](Cc1ccc(O)cc1)P(=O)(O)O`, the IC50 is 25 nM in assay [1]; 40000 nM in assay [2]; 150000 nM in assay [3]; 11000 nM in assay [4]; 11 nM in assay [5]; 110 nM in assay [6]. For the same compound, the Ki in assay [5] came out at 11 nM; in assay [6], 75 nM.
Take `CN[C@H](C(=O)N[C@@H](Cc1ccccc1)C(=O)N[C@@H](Cc1ccc(O)cc1)P(=O)(O)O)C(C)C`: the IC50 in assay [1] turned out to be 370 nM; in assay [5], 590 nM; in assay [6], 220 nM.
`CN[C@H](C(=O)N[C@@H](Cc1ccc(O)cc1)C(=O)N[C@@H](Cc1ccc(O)cc1)P(=O)(O)O)C(C)C`: the IC50 turned out to be 140 nM in assay [1], 54 nM in assay [5] and 52 nM in assay [6].
Take `CC[C@H](C)[C@H](NC(C)=O)C(=O)N[C@@H](CC(C)C)C(=O)N[C@@H](Cc1ccc(O)cc1)P(=O)(O)O`: the IC50 in assay [1] turned out to be 100 nM; in assay [5], 12 nM; in assay [6], 76 nM. Besides, the Ki was found to be 21 nM in assay [5] and 33 nM in assay [6].
Consider `CC[C@H](C)[C@H](NC(C)=O)C(=O)N[C@@H](Cc1ccccc1)C(=O)N[C@@H](Cc1ccc(O)cc1)P(=O)(O)O`, for which, in assay [1], the concentration for half-maximal inhibition (IC50) was 35 nM.
Still for that read-out and setting: the same measure for `CC[C@H](C)[C@H](NC(C)=O)C(=O)N[C@@H](CCC(=O)O)C(=O)N[C@@H](Cc1ccc(O)cc1)P(=O)(O)O`: 5200 nM.
On to `N[C@@H](Cc1ccc(O)cc1)P(=O)(O)O`, for which, in assay [7], the IC50 is greater than 1000 nM.
